Patent publication US10017535B2, “Amphiphilic compounds with neuroprotective properties” (USTAV ORGANICKE CHEMIE A BIOCHEMIE AV CR, v.v.i., priority 2014, dated 2018)

What was measured:
[1] = target: T1, NR1-1a/NR2B NMDA receptor (Rattus norvegicus, UniProt P35439+Q00960); assay: Patch-clamp inhibition of glutamate-evoked currents at recombinant NMDA receptors in transfected HEK293 cells; assay type: cell-based; settings: for IC50: calculated from relative steroid-induced inhibition, Hill's coefficient 1.2, read-out: IC50
T1 construct: expressed in transfected cells; host or cells: HEK293 cells (ATCC CRL1573)
In short: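 HEK293 cells co-transfected with rat NR1-1a/NR2B plus GFP were whole-cell patch-clamped 16-40 h post-transfection at −60 mV. Currents were evoked by 1 mmol·l^−1 glutamate with 10 μmol·l^−1 glycine in ECS pH 7.3, and steroid was co-applied in DMSO via fast perfusion. IC50 came from relative inhibition.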

[2] = system: laboratory mice, strain CD-1; assay type: in vivo; settings: intraperitoneally, 1 mg/kg; further: key: −: the desired effect was not observed; −/+: the desired effect was insufficient; +: the desired effect was observed
Procedure: (§1) In the Experimental Part 1 were used adults (30-35 g) male laboratory mice, strain CD-1 from Velaz facility, Czech Republic. Mice were housed in plastic boxes with a 12-hour light cycle (lights on at 7:00 pm). Mice had free access to food and water.
Thus there were prepared solutions of the four steroids for application rates of 0.1, 1, 10 and 100 mg/kg.
Laboratory mouse was chosen as a model organism for this experiment. The following experiments were performed as described in Front Behay. Neurosci.
The purpose of the primary behavioral testing was quickly determined the effect of compounds on CNS dependent functions and any signs of toxicity. A simplified modification Irwin test was selected with respect to the behavioral profile of NMDA receptor antagonists. Mice were tested individually. The study drug was administered intraperitoneally (Table 3) at a dose of 1 mg/kg. The control group consisted of individuals that received the CDX solution or saline.

[3] = system: laboratory mice, strain CD-1; assay: Forced swimming test (antidepressant effect); assay type: in vivo; on Forced Swimming Test Reduced Floating: key: −: the desired effect was not observed; −/+: the desired effect was insufficient; +: the desired effect was observed
Procedure: as §1
This assay was used to monitor the antidepressant effect. Animals float 6 minutes in acrylic cylinder in water at 24° C. A period of immobility is evaluated. The reduction is a manifestation of anti-depressant properties of drugs.

[4] = system: laboratory mice, strain CD-1; assay: Passive avoidance test (aversive motivated memory); assay type: in vivo; further: key: −: the desired effect was not observed; −/+: the desired effect was insufficient; +: the desired effect was observed
Procedure: as §1
Aversive motivated memory test was evaluated on the basis of latency input into the preferred, but unpleasant sensation associated with delivery device.

[5] = system: NMDA lesion of the dorsal hippocampus in rats; assay: Active allothetic place avoidance (AAPA) after bilateral excitotoxic NMDA lesion of dorsal hippocampus; assay type: in vivo, rat Long-Evans strain; settings: for NMDA lession Improvement in Cognition in AAPA after NMDA Lession: 1 mg/kg after NMDA lesion; on NMDA lession Improvement in Cognition in AAPA after NMDA Lession: key: −: the desired effect was not observed; −/+: the desired effect was insufficient; +: the desired effect was observed
Procedure: In the Experimental Part 2 were used adult (3 months old, 300-400 g) male rat Long-Evans strain. The animals come from herds Institute of Physiology ASCR. The rats were housed in clear plastic boxes with the same light cycle as in mice. Animals had free access to food and water. All experiments were carried out in the light of clay. All experiments were carried out in accordance with the Law on protection of animals against cruelty.
The anesthetized rats were used in operations isoflurane (3.5%, Baxter). To recall excitotoxic lesion of the dorsal hippocampus was applied 0.05 mol·l^−1 solution of NMDA (Sigma-Aldrich) in 0.4 mol·l^−1 phosphate buffer solution prepared by mixing 356 g Na2HPO4.12H2O (Mw358.14) in 4.2 l of distilled water and a solution of 62.4 g NaHPO4. 2H2O (Mw156.01) in 0.8 l of distilled water. The pH of the resulting solution of NMDA was adjusted to 7.4 with NaOH.
In this experiment, the neuroprotective effects were evaluated for amphiphilic steroid compounds. The procedure was performed according to Neuropharmacology 61, 61-68 (2011)
The rats were randomly divided into eleven groups. The control group included operated animals, which were injected by phosphate buffer […] into the hippocampus. In the second group, the animals had NMDA lesions of the hippocampus. The animals of the third group were applied clinically used NMDA antagonist memantine at a dose of 5 mg/kg after NMDA lesion. The other groups were administered the compounds at a dose of 1 mg/kg.
The test was performed in rotating arena with prohibited sector in the form of a circular sector (60°). If the rat entered the sector, its limbs received weak electrical impulse.
Test memory and spatial cognition in rats using AAPA was evaluated over four sessions, which are in healthy rats sufficient to achieve asymptotic level (Behay. Brain. Res. 189, 139-144 (2008)). To evaluate memory and spatial cognition was used data from the fourth session, and the number of entries into the forbidden sector and the maximum avoidance sector. […] After the experiment, the localization of the lesion was histologically verified.
Data were analyzed using the non parametric test of Maim Whitney criteria using the GraphPad. The difference was considered significant for p<0.05, for a non-significant tendency then for 0.05<p<0.075.

[6] = 1 mg/kg after surgery, vs NMDA group

T1 sequence (Q00960 27-1482, other chains not shown): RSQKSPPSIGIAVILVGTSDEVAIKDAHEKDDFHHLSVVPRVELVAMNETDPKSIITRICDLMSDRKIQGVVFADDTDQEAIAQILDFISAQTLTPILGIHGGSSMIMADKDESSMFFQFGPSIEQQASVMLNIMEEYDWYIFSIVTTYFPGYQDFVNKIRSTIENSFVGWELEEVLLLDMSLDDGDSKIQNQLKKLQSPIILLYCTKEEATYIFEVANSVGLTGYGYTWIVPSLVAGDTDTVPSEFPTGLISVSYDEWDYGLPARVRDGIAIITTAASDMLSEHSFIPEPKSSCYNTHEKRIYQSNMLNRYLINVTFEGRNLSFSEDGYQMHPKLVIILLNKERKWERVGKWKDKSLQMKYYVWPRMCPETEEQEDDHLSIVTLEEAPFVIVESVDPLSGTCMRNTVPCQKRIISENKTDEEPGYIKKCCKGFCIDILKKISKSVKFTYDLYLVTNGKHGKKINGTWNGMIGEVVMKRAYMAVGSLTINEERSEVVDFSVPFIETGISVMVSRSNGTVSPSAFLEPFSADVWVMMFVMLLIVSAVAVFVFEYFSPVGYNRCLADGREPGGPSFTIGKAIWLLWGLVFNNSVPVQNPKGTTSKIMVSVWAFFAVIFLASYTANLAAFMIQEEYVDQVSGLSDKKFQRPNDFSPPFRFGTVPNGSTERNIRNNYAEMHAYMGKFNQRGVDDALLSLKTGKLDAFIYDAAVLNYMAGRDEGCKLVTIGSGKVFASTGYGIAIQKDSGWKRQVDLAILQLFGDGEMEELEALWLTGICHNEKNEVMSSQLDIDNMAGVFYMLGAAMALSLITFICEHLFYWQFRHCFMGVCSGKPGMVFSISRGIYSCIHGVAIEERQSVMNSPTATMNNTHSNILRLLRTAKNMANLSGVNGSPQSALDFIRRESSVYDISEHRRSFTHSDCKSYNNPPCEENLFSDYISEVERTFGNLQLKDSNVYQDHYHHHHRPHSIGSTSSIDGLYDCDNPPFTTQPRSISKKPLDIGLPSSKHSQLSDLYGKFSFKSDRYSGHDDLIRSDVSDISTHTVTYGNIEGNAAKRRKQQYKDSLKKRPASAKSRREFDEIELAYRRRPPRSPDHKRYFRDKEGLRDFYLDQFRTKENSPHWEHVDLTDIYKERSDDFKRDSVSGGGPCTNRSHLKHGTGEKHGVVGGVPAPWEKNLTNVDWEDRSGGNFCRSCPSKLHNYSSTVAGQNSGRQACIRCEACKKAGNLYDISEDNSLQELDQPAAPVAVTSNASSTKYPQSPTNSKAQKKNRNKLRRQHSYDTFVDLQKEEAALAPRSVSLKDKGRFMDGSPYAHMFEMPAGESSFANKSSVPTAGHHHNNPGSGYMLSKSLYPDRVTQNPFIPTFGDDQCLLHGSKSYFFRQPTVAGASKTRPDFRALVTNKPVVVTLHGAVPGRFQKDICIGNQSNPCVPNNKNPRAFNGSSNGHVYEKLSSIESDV

Row | Compound | inhibition at 10 µM ([1]; HEK293, steroid concentration 10 μmol·l^−1, 1 mmol·l^−1 glutamate, −60 mV, read-out: Mean % change ± SD) [%] | IC50 [1] [µM] | Behavioural Test No Evidence of Toxicity [2] | Forced Swimming Test Reduced Floating [3] | Passive Avoidance Test No Memory Violation [4] | NMDA lession Improvement in Cognition in AAPA after NMDA Lession [5] | inhibition at 1 µM ([1]; HEK293, read-out: Mean % change ± SD) [%] | flotation (immobility) ([3]; 1 mg/kg) | latency to the first flotation ([3]; 1 mg/kg) | maximum time avoiding the sector, fourth session of AAPA [5, 6] | number of entries into the forbidden sector, fourth session of AAPA [5, 6] | Mean % change ± SD ([1]; steroid concentration 100 μmol·l^−1, 1 mmol·l^−1 glutamate, −60 mV) [%]
1 | C[C@@]12CCCCC1[C@@H]1CC[C@@H]3C[C@H](OC(=O)[C@@H](N)CCC(=O)O)CC[C@]3(C)[C@H]1CC2 (stereo partly drawn) [Compound 106, (4S)-4-Amino-5-(((2R,4aS,4bS,6aS,10bS,12aR)-4a,6a-dimethyloctadekahydrochrysen-2-yl)oxy)-5-oxopentanoic acid] | 48.7 ± 6.3 | 10.6 | + | − | + | − |  |  |  |  |  | 
2 | C[C@@]12CCC[C@H]1[C@@H]1CC[C@@H]3C[C@H](OC(=O)[C@@H](N)CCC(=O)O)CC[C@]3(C)[C@H]1CC2 [Compound 130, (4S)-4-Amino-5-(((3R,5R,8S,9S,10S,13S,14S)-10,13-dimethylhexadecahydro-1H-cyclopenta[a]phenanthren-3-yl)oxy)-5-oxopentanoic acid] |  | 1.6 | + | + | + |  | 36.7 ± 7 | significant decrease | longer latency | significantly increased | significant reduction | 
3 | Pyridinium (3S,3aS,5bR,7aR,9R,11aS,11bS,13aR)-3,11a-dimethylhexadecahydro-1H,3H-naphtho[2′,1′:4,5]indeno[1,7a-c]furan-9-yl 9-sulfate [Compound 124] |  | 51 | + | − | −/+ | − |  |  |  |  |  | 69.1 ± 4.0
